Where “and” joins values, the source holds several entries; their conditions need not be identical. Equal values may be shown once.
Tests used:
[1] = tested on: caspase-3/-7 activity in MCF-7 cells; experiment: Caspase-3/-7 luminescence assay (Caspase-Glo 3/7) in MCF-7 cells; assay type: cell-based, human; details: 2×IC50, 18 h, vs cells treated with DMSO 0.5%
Experimental: The effect of the most bioactive compounds (2), (6) and (9) were used for the analysis of caspase-3 and caspase-7 activities on MCF-7 cells by using the Caspase-Glo® 3/7 kit (Promega, Germany). In fact, MCF-7 cells were seeded at a density of 10^4 cells per well on 96-well microtiter plates, and the plates were incubated overnight at 37 °C in a 5% CO2 humidified environment. […] Thereafter, 100 µL of Caspase-Glo® 3/7 reagent was added to each well, mixed and incubated in the dark for 1 h at room temperature. The luminescence was then measured on a microplate reader (Synergy Multi-Mode Reader, BioTek, Winooski, United States of America). The caspase-3/-7 activity was expressed as fold change of cells treated with 0.5% DMSO (control).

[2] = tested on: cancer cells (MCF-7, HepG2, Caco-2 and A549) and non-cancerous Vero cells; experiment: Time-dependent cytotoxic effect on cell growth (MTT); assay type: cell-based; details: 10 μg/mL; 12, 24 and 48 h
Experimental: The cancerous and non-cancerous cells were seeded at a density of 10^4 cells per well in 96-well microtiter plates, and they were incubated overnight at 37°C with 5% CO2 in a 5% CO2 humidified environment in order to allow the attachment of cells at the bottom of the plates. Then, the cells were exposed to increasing concentrations of compounds (100, 50, 25, 10 and 5 μg/mL) dissolved in dimethyl sulfoxide (DMSO) and further diluted in fresh culture medium. In this assay, the final concentration of DMSO in the culture medium was 0.5% used as negative control while doxorubicin hydrochloride (Pfizer, United States of America) was used as a positive control. […] After 4 h of incubation, the medium was gently removed, and the formazan crystals were solubilized in 50 µL of DMSO. The absorbance was measured at 570 nm after shaking for 1 min on a microplate reader (Synergy Multi-Mode Reader, BioTek, Winooski, United States of America).

[3] = tested on: human normal skin fibroblasts (WS1) cell lines; parameters: method as in Gauthier et al., 2009; details: ref Gauthier et al., 2009; cited from earlier work
[4] = tested on: human lung cancer cells A549; parameters: method as in Gauthier et al., 2009; Gao et al., 2016; details: ref Gauthier et al., 2009; Gao et al., 2016; cited from earlier work

SMILES: C[C@@H]1CC[C@]2(C(=O)O)CC[C@]3(C(=O)O)C(=CCC4[C@@]5(C)CC[C@H](O[C@H]6O[C@H](C)[C@@H](O)[C@H](O)[C@H]6O)C(C)(C)C5CC[C@]43C)C2[C@H]1C (stereo partly drawn) [Compound 6, quinovic acid 3-O-[α-D-quinovopyranoside]]
- fold change in the activation of caspase-3/-7 activity [1]: up to 2 fold

SMILES: CC1(C)CC[C@]2(C(=O)O)CC[C@]3(C)C(=CC[C@@H]4[C@@]5(C)CC[C@H](O)[C@@](C)(CO)[C@@H]5CC[C@]43C)[C@@H]2C1 [Compound 2, hederagenin]
- time-dependent cytotoxic effect on cell growth [2]: time-dependent manner
- fold change in the activation of caspase-3/-7 activity [1]: up to 2 fold
- IC50 [3]: 77 µM
- IC50 [4]: 26.3 µM and 39 µM

— paper PMC10320002, “In vitro antiproliferative, anti-inflammatory effects and molecular docking studies of natural compounds isolated from Sarcocephalus pobeguinii (Hua ex Pobég)” (Frontiers in Pharmacology, 2023)
